The experiment relates to A2780 CisR cisplatin resistant ovarian cancer cells. Put plainly: GI50 determination, SRB assay. In kind it is cell-based, human. Particulars: read-out: Mean GI50 (μM) A2780 CisR SRB Assays. On the procedure:
GI50 determination assays
Cell culture: The RPE-1 retinal pigment epithelial, A2780 human ovarian carcinoma, and A2780 CisR cisplatin resistant human ovarian carcinoma cell lines were donated with thanks from the Institute of Cancer Research. The A2780 and A2780 CisR cell lines were cultured in IMDM supplemented with 10 % FBS at 37 °C and 5 % CO2, while the RPE-1 cell line was cultured in a 1:1 mixture of Dulbecco's Modified Eagle Medium and Ham’s F-12 Nutrient Mixture (DMEM/F-12) at 37 °C and 5 % CO2.
SRB assay: Cells were seeded into 96-well plates at 800 cells per well/cpw (A2780), 1600 cpw (A2780 CisR) or 400 cpw (RPE-1) in cell culture medium and cultured for 48 hours followed by addition of each compound over an eight-point concentration range (each concentration in triplicate). Plates were then cultured for a further 96 hours, after which the cell culture […]
medium was removed from each well and the cells fixed with addition of 70 µL/well of 10 % (w/v) trichloroacetic acid (TCA) in distilled water followed by incubation for 30 minutes at RT.
Each plate was then washed with distilled water five times before addition of 70 µL SRB dye (0.4 % (w/v) SRB dye (ThermoFisher Scientific, USA) solubilised in 1 % (v/v) acetic acid/ dH2O) and incubat ed for 30 minutes at RT, followed by washing three times with 1 % (v/v) acetic acid and drying in a 37 °C oven overnight. Once dry, 100 μl of 10 mM Tris -base (ThermoFisher Scientific, USA) was added to each well and plates put on a microplate shaker for 10 minutes at 200 rpm to solubilize the dye. Absorbance values were then read at wavelength 490 nm on a Victor X4 multi-label plate reader (PerkinElmer Life Sciences, USA), data analysed using Microsoft Excel and graphs produced using GraphPad Prism 9.0 and the GI50 value calculated.
Solutions and compo und preparation: All solvents and starting materials were purchased from known chemical suppliers. Compound stock solutions were prepared in DMSO. Buffer […]
500 mM. Buffer B consisted of Na2SO4 (167 mM) and NaOAc (5 mM) with a pH of 5.5 and an ionic strength of 500 mM.
Vesicle formation: Giant unilamellar Vesicles (GUVS) were prepared through the electro formation method using a Nanion VesiclePrepPro. A solution of 1,2-diphytanoyl-sn-glycero-3-phosphocholine (DPhPC) (10 mM) with 10 % cholesterol in chloroform (20 µL) was deposited onto an ITO coated glass surface (surface coated glass slide) and allowed to evaporate to create a dehydrated thin lipid film. A greased O-ring was then placed around the dehydrated lipid film to create a seal. This volume was then filled with a sucrose solution (275 µL, 200 mM) and then sealed with a second ITO coated glass slide. An AC current (3 V/5 Hz) was then applied. After 2 hrs, the voltage and frequency were reduced in steps over 30 mins to 1.6 V/1 Hz and held for 1 hr before being reduced to 0 V/0 Hz over a further 30 min […]
Patch clamp measurements: Experiments were performed using a Port-a-Patch system (Nanion Technologies) with borosilicate glass chips that contain an aperture diameter of approximately 1 µm. Buffer A (5 µL) was placed on the underside of the chip over the aperture, The chip was then placed into the port-a-patch system. Buffer A (15 µL) was then added to the top of the chip and 5 µL of the GUV stock solution added. The GUVS were the positioned over the aperture in the chip by application of negative pressure (-30 mbar).
When a GUV is positioned over the aperture in the chip, it bursts, leaving a planar bilayer as a seal. The negative pressure is then removed, leaving the planar bilayer in place over the aperture. The external buffer A was the exchanged with buffer B, through four simultaneous […]
buffer exchanges (4 x 15 µL). […]
= 30 s, to give a final experimental concentration of 0.1 – 1 mM as appropriate. The number of sweeps was set to 1000, the sweep interval to 0.00 s, sample interval to 1.00 ms and the protocol was run for a total of 5 mins. Each experiment was repeated a minimum of three time to ensure reproducibility.

Each structure is given as a SMILES string. Read-outs that look alike come from different tables or passages of the source.

For `O=C(O)CNC(=O)Nc1ccc(C(F)(F)F)cc1` [SSA 1], the concentration for 50% growth inhibition (GI50) (Homo sapiens, A2780cisR, 96 h) amounted to 367 µM.

For `CC(C)CC(NC(=O)Nc1ccc(C(F)(F)F)cc1)C(=O)O` (centres unmarked) [SSA 3], the GI50 (Homo sapiens, A2780cisR, 96 h) came to 276 µM.

Turning to `CC(C)CC(NC(=O)Nc1ccc(C(F)(F)F)cc1)C(=O)O` (centres unmarked) [SSA 5], the GI50 (96 hours) amounted to 498 µM.

As for `O=C(Nc1ccc(C(F)(F)F)cc1)N[C@@H](Cc1ccccc1)C(=O)O` [SSA 7], where the note is “Homo sapiens, A2780cisR, 96 h”, the GI50 stood at 356 µM.

Take `O=C(Nc1ccc(C(F)(F)F)cc1)N[C@H](Cc1ccccc1)C(=O)O` [SSA 9]: the GI50 (Homo sapiens, A2780cisR, 96 h) is 197 µM.

One may read the GI50 as the concentration giving 50% growth inhibition.

Source of the values: publication PMC12973313 (Chemical Science, 2026).
